{"source": "patent US8829009B2", "about": "“Substituted 2-amino-3-(sulfonyl)pyrazolo[1,5-a]pyrimidines - serotonin 5-HT6 receptor antagonists, method for use thereof” (priority 2008, dated 2014)", "key": {"5-HT6 receptor [1]": {"molecular_target": "T1, 5-HT6 receptor (Homo sapiens (Human), UniProt P50406)", "T1 sequence (P50406 whole entry)": "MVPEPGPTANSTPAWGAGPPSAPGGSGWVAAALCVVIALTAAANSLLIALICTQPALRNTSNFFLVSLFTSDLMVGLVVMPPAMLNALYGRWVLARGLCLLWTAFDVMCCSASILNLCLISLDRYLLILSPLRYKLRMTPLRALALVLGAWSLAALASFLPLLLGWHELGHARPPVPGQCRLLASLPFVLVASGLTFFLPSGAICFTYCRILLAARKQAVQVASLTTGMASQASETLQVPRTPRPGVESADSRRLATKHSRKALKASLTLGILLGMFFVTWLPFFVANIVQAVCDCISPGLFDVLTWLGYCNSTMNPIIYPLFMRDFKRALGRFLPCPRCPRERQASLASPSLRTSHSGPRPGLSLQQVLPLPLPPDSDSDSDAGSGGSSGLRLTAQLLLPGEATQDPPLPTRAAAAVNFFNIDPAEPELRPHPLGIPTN", "assay": "Functional assay: inhibition of serotonin-induced intracellular cAMP in HEK 293 cells expressing 5-HT6 receptor (LANCE cAMP)", "assay_type": "cell-based", "conditions": "for inhibition at 10 µM: HEK293, read-out: % inhibition of 5-HT6 receptors, 10 μM solutions of compounds; for IC50: HEK 293 cells expressing 5-HT6 receptor, read-out: IC50 inhibition of serotonin 5-HT6 receptors in the setting of functional assay (serotonin-stimulated intracellular cAMP production)", "protocol": "Determination of antagonistic activity of compounds of general formula 1 towards 5-HT6 receptors. Compounds of general formula 1 were tested for their ability to prevent 5-HT6 receptor activation by serotonin. HEK 293 cells (cells of human embryo's kidney) with artificially expressed 5-HT6 receptor, activation of which by serotonin leads to increasing the concentration of intracellular cAMP were used. The content of intracellular cAMP was determined using reagent kit LANCE cAMP (PerkinElmer) according to the method described by the manufacturer of the kit [http://las.perkinelmer.com/content/Manuals/MAN_LANCEcAMP384KitUser.pdf].\nEffectiveness of compounds was estimated by their ability to reduce the content of intracellular cAMP induced by serotonin."}, "[2]": {"system": "food consumption (appetite) in rats", "assay": "Appetite control test in food-deprived rats", "assay_type": "in vivo, rat", "conditions": "Vistar rats, 16 h food deprivation, 10 mg/kg intraperitoneally 60 min before test (FIG. 2 legend: 1 mg/kg)", "protocol": "Appetite control test. Male rats of Vistar line weighing 230-360 g were housed in standard home cages with water and food available with the exception of short periods of food deprivation (16 hs) just before the Appetite test. The Appetite test was carried out in individual cages with overhead cover made of wire in the niches of which a portion of food granules was inserted. Mass of the granules was examined every 30 minutes for 3 h. On the basis of these measurements food consumption was estimated and stated in grams of food per kilogram of body mass. Placebo and the compound 1.1(1) (dose 10 mg/kg) were injected intraperitoneally 60 minutes before the test. Each experimental group of animals consisted of 10 rats. Compound was dissolved in sterilized water. The injection volume was 10 ml/kg. Intact animals which were not undergone food deprivation, and animals after food deprivation, but injected with sterilized water, were used as control. […]"}, "[3]": {"system": "prepulse inhibition of startle in mice", "assay": "Prepulse inhibition of the startle response in mice (Apomorphine-induced disturbance)", "assay_type": "in vivo, mouse", "conditions": "SHK mice, 1 mg/kg, 60 min before test", "protocol": "Antipsychotic activity of compounds of the general formula 1 in “Prepulse inhibition of the startle response in mice” test. Mice of SHK line weighing about 24-30 g were used in the test. Experiments were carried out during light period of animal's diurnal. Apomorphine hydrochloride and Haloperidol were received from Sigma Chemicals Company, (USA). Apomorphine hydrochloride was dissolved in 0.1% solution of ascorbic acid prepared with sterilized water; it was administered subcutaneously 15 minutes before the test. Haloperidol was dissolved in sterilized water using emulsifier Twin 80, it was administered intraperitoneally 60 minutes before the test. The compound 1.1(1) was dissolved in sterilized water, it was introduced subcutaneously 60 minutes before the test. Injection volume was 10 ml/kg. Solution of ascorbic acid prepared with sterilized water and Twin 80 were injected to control group of animals.\nThe test instrument consisted of a chamber made of transparent plexiglass (manufacturer—Columbia Instruments Company, USA) and placed on a platform the latter was lodged inside the sound insulating chamber. High frequency sound column transmitting acoustic stimulus was located 2 cm away from the platform. […] Inhibition of the startle in reply to prepulse-plus-pulse stimulus was calculated in percentage towards amplitude of startle in response to isolated pulse stimulus. […]"}, "5-HT6 receptor [4]": {"molecular_target": "T1, 5-HT6 receptor", "assay": "Competitive radioligand binding ([3H] Lysergic acid diethylamide) to membranes of HeLa cells expressing recombinant human 5-HT6 receptors", "protocol": "Activity determination of serotonin 5-HT6 receptor antagonists of the general formula 1 in the setting of competitive binding to serotonin 5-HT6 receptors.\nScreening of the disclosed compounds for their potential ability to interact with serotonin 5-HT6 receptors was carried out by method of radioligand binding. For this purpose membrane species were prepared from expressing recombinant human 5-HT6 receptors HeLa cells by means of their homogenization in glass homogenizer with subsequent separation of plasmatic membranes from cell nucli, mitochondria's and cell wreckages by differential centrifugation. Determination of tested compounds binding with 5-HT6 receptors was carried out according to the method described in [Monsma F J Jr, Shen Y, Ward R P, Hamblin M W and Sibley D R, Cloning and expression of a novel serotonin receptor with high affinity for tricyclic psychotropic drugs. Mol Pharmacol. 43:320-327, 1993]. […] After incubation the samples were filtered in vacuo on glass-microfiber filters G/F (Millipor, USA), filters were washed three times with cold solution of medium and radioactivity was measured by scintillation counter MicroBeta 340 (PerkinElmer, USA). […] Binding of tested compounds to the receptor was determined by their ability to displace the radioligand and expressed in percent of displacement. The percent of displacement was calculated according to the following equation:\n[formula] wherein: TA—was overall radioactivity in the presence of radioligand only, CA—was radioactivity in the presence of radioligand and tested compound and NA—was radioactivity in the presence of radioligand and Serotonin (5 μM)."}}}
{"smiles": "Cc1cc(C)n2nc(N(C)C)c(S(=O)(=O)c3cccc(F)c3)c2n1", "note": "[1.1(6), 2-dimethylamino-5,7-dimethyl-3-(3-fluorophenylsulfonyl)pyrazolo[1,5-a]pyrimidine]", "values": [{"measurement": "inhibition at 10 µM", "setting": "5-HT6 receptor [1]", "value": 97, "unit": "%"}]}
{"smiles": "CNc1nn2c(C)cc(C)nc2c1S(=O)(=O)c1cccc(Cl)c1", "note": "[1.1(7), 2-methylamino-5,7-dimethyl-3-(3-chlorophenylsulfonyl)pyrazolo[1,5-a]pyrimidine]", "values": [{"measurement": "inhibition at 10 µM", "setting": "5-HT6 receptor [1]", "value": 100, "unit": "%"}, {"measurement": "IC50", "setting": "5-HT6 receptor [1]", "value": 2, "unit": "nM"}]}
{"smiles": "CCNc1nn2c(C)cc(C)nc2c1S(=O)(=O)c1ccccc1", "note": "[1(7)]", "values": [{"measurement": "inhibition at 10 µM", "setting": "5-HT6 receptor [1]", "value": 104, "unit": "%"}]}
{"smiles": "CNc1nn2c(C)cc(C)nc2c1S(=O)(=O)c1ccc(F)c(Cl)c1", "note": "[1.1(9)]", "values": [{"measurement": "inhibition at 10 µM", "setting": "5-HT6 receptor [1]", "value": 97, "unit": "%"}, {"measurement": "IC50", "setting": "5-HT6 receptor [1]", "value": 4, "unit": "nM"}]}
{"smiles": "CNc1nn2c(C)cc(C)nc2c1S(=O)(=O)c1ccc(F)cc1", "note": "[1.1(3), 2-methylamino-5,7-dimethyl-3-(4-fluorophenylsulfonyl)pyrazolo[1,5-a]pyrimidine]", "values": [{"measurement": "inhibition at 10 µM", "setting": "5-HT6 receptor [1]", "value": 99, "unit": "%"}, {"measurement": "IC50", "setting": "5-HT6 receptor [1]", "value": 6, "unit": "nM"}]}
{"smiles": "CNc1nn2c(-c3ccccc3)cc(C)nc2c1S(=O)(=O)c1ccccc1", "note": "[1(2)]", "values": [{"measurement": "inhibition at 10 µM", "setting": "5-HT6 receptor [1]", "value": 90, "unit": "%"}]}
{"smiles": "Cc1cc(C)n2nc(N(C)C)c(S(=O)(=O)c3cccc(Cl)c3)c2n1", "note": "[1.1(8), 2-dimethylamino-5,7-dimethyl-3-(3-chlorophenylsulfonyl)pyrazolo[1,5-a]pyrimidine]", "values": [{"measurement": "inhibition at 10 µM", "setting": "5-HT6 receptor [1]", "value": 96, "unit": "%"}]}
{"smiles": "CNc1nn2c(C)cc(C)nc2c1S(=O)(=O)c1cccnc1", "note": "[1(5)]", "values": [{"measurement": "inhibition at 10 µM", "setting": "5-HT6 receptor [1]", "value": 95, "unit": "%"}]}
{"smiles": "CNc1nn2c(C)cc(C)nc2c1S(=O)(=O)c1ccncc1", "note": "[1(4)]", "values": [{"measurement": "inhibition at 10 µM", "setting": "5-HT6 receptor [1]", "value": 97, "unit": "%"}]}
{"smiles": "Cc1cc(C)n2nc(N3CCN(C(=O)OC(C)(C)C)CC3)c(S(=O)(=O)c3ccccc3)c2n1", "note": "[1(11)]", "values": [{"measurement": "inhibition at 10 µM", "setting": "5-HT6 receptor [1]", "value": 63, "unit": "%"}]}
{"smiles": "CNc1nn2c(C)cc(C)nc2c1S(=O)(=O)c1cccc(F)c1", "note": "[1.1(5), 2-methylamino-5,7-dimethyl-3-(3-fluorophenylsulfonyl)pyrazolo[1,5-a]pyrimidine]", "values": [{"measurement": "inhibition at 10 µM", "setting": "5-HT6 receptor [1]", "value": 97, "unit": "%"}, {"measurement": "IC50", "setting": "5-HT6 receptor [1]", "value": 5, "unit": "nM"}]}
{"smiles": "Cc1cc(C)n2nc(NCCCN(C)C)c(S(=O)(=O)c3ccccc3)c2n1", "note": "[1(10)]", "values": [{"measurement": "inhibition at 10 µM", "setting": "5-HT6 receptor [1]", "value": 94, "unit": "%"}]}
{"smiles": "Cc1cc(C)n2nc(N(C)C)c(S(=O)(=O)c3ccc(F)cc3)c2n1", "note": "[1.1(4), 2-dimethylamino-5,7-dimethyl-3-(4-fluorophenylsulfonyl)pyrazolo[1,5-a]pyrimidine]", "values": [{"measurement": "inhibition at 10 µM", "setting": "5-HT6 receptor [1]", "value": 95, "unit": "%"}]}
{"smiles": "Cc1cc(C)n2nc(N3CCNCC3)c(S(=O)(=O)c3ccccc3)c2n1", "note": "[1(12)]", "values": [{"measurement": "inhibition at 10 µM", "setting": "5-HT6 receptor [1]", "value": 76, "unit": "%"}]}
{"smiles": "Cc1ccc(S(=O)(=O)c2c(Nc3ccccc3)nn3c(C)c(C)c(C)nc23)cc1", "note": "[1(1)]", "values": [{"measurement": "inhibition at 10 µM", "setting": "5-HT6 receptor [1]", "value": 77, "unit": "%"}]}
{"smiles": "CNc1nn2c(C)cc(C)nc2c1S(=O)(=O)c1ccccc1", "note": "[1.1(1), 2-methylamino-5,7-dimethyl-3-(phenylsulfonyl)pyrazolo[1,5-a]pyrimidine]", "values": [{"measurement": "inhibition at 10 µM", "setting": "5-HT6 receptor [1]", "value": 77, "unit": "%"}, {"measurement": "IC50", "setting": "5-HT6 receptor [1]", "value": 5, "unit": "nM"}, {"measurement": "effect on appetite (food consumption) after food deprivation", "setting": "[2]", "value": "capable to prevent appetite rising in rats"}, {"measurement": "effect on disturbance of prepulse inhibition of startle caused by Apomorphine", "setting": "[3]", "value": "prevented disturbance of prepulse inhibition of startle caused by Apomorphine"}, {"measurement": "IC50", "setting": "5-HT6 receptor [4]; 1.5 nM [3H] Lysergic acid diethylamide, 120 min at 37° C., read-out: IC50 in the setting of competitive binding", "value": 0.511, "unit": "nM"}, {"measurement": "Ki", "setting": "5-HT6 receptor [4]; 1.5 nM [3H] Lysergic acid diethylamide, 120 min at 37° C., read-out: Ki in the setting of competitive binding", "value": 0.237, "unit": "nM"}, {"measurement": "activity of serotonin 5-HT6 receptor antagonist", "setting": "5-HT6 receptor [4]; quantity not specified, differs from Table 4", "value": 4.61, "unit": "nM"}]}
{"smiles": "Cc1cc(C)n2nc(N3CCN(C)CC3)c(S(=O)(=O)c3ccccc3)c2n1", "note": "[1(13)]", "values": [{"measurement": "inhibition at 10 µM", "setting": "5-HT6 receptor [1]", "value": 80, "unit": "%"}]}
{"smiles": "Cc1cc(C)n2nc(N(C)C)c(S(=O)(=O)c3ccccc3)c2n1", "note": "[1.1(2), 2-dimethylamino-5,7-dimethyl-3-(phenylsulfonyl)pyrazolo[1,5-a]pyrimidine]", "values": [{"measurement": "inhibition at 10 µM", "setting": "5-HT6 receptor [1]", "value": 86, "unit": "%"}, {"measurement": "IC50", "setting": "5-HT6 receptor [1]", "value": 1180, "unit": "nM"}]}
{"smiles": "CNc1nn2c(C)cc(-c3ccccc3)nc2c1S(=O)(=O)c1ccccc1", "note": "[1(3)]", "values": [{"measurement": "inhibition at 10 µM", "setting": "5-HT6 receptor [1]", "value": 91, "unit": "%"}]}
{"smiles": "Cc1cc(C)n2nc(NCCN(C)C)c(S(=O)(=O)c3ccccc3)c2n1", "note": "[1(8)]", "values": [{"measurement": "inhibition at 10 µM", "setting": "5-HT6 receptor [1]", "value": 91, "unit": "%"}]}
{"smiles": "Cc1cc(C)n2nc(N(C)CCN(C)C)c(S(=O)(=O)c3ccccc3)c2n1", "note": "[1(9)]", "values": [{"measurement": "inhibition at 10 µM", "setting": "5-HT6 receptor [1]", "value": 88, "unit": "%"}]}
{"smiles": "CNc1nn2c(C)cc(C)nc2c1S(=O)(=O)c1cccs1", "note": "[1(6)]", "values": [{"measurement": "inhibition at 10 µM", "setting": "5-HT6 receptor [1]", "value": 98, "unit": "%"}]}
{"smiles": "Cc1ccc(Nc2nn3c(C)cc(C)nc3c2S(=O)(=O)c2ccc(C)cc2)cc1", "note": "[1(14)]", "values": [{"measurement": "inhibition at 10 µM", "setting": "5-HT6 receptor [1]", "value": 70, "unit": "%"}]}
{"smiles": "O=C(CCCN1CCC(O)(c2ccc(Cl)cc2)CC1)c1ccc(F)cc1", "note": "[Haloperidol, reference compound]", "values": [{"measurement": "effect on disturbance of prepulse inhibition of startle caused by Apomorphine", "setting": "[3]", "value": "prevented disturbance of prepulse inhibition of startle caused by Apomorphine"}]}
